Reference: US11802128B2, “Azetidine and pyrrolidine PARP1 inhibitors and uses thereof” (Xinthera, Inc., priority 2021, dated 2023)
Where two headings read alike, the source gives them in different places.

How the values were obtained:
DLD-1 BRCA2(−/−) cells = assay: Cell growth inhibition assay (CellTiter-Glo cell viability, 7 days); format: cell-based; settings: Homo sapiens, 168 h
Method in brief: (§1)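 Cells were seeded at 50 (DLD-1 parental), 200 (DLD-1 BRCA2−/−) or 500 (MDA-MB-436) cells/well onto 1:3 compound dilutions, top final 10 or 30 μM. Culture ran 7 days at 37 °C, 5% CO2. ATP was read by CellTiter-Glo 2.0, and IC50 was fitted from growth inhibition.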

[1] = test system: MDA-MB-436 (mutated BRCA1) cells; assay: as above; format: cell-based; settings: Homo sapiens, 168 h, MDA-MB-436, 7 days
Method in brief: as §1

PARP1 = PARP1 (Homo sapiens (Human), UniProt P09874); assay: Biochemical fluorescent polarization (FP) assay, displacement of PARPi-FL; format: binding; settings: 20 nM protein, 3 nM PARPi-FL, 4 h at room temperature
Description: (§2) The assay was performed utilizing the following method:
(§3) 100% DMSO was used for the high (with protein) and low (without protein) control samples. 20 nL of compound or DMSO alone was added to individual assay plate wells.
(§4) PARP1 and PARP2 protein were expressed, purified, and diluted in assay buffer containing 50 mM Tris pH 8.0, 0.001% Triton X-100, 10 mM MgCl2, 150 mM NaCl to a final concentration of 20 nM. The PARPi-FL was then added at a final concentration of 3 nM.
(§5) The assay plate is centrifuged at 1000 rpm for 1 min and incubated for 4 h at room temperature.
(§6) The fluorescent polarization is read using an Envision plate reader using the following settings: […]

PARP2 = PARP2 (Homo sapiens (Human), UniProt Q9UGN5); assay: as above; format: binding
Description: as §2, §3, §4, §5, §6

[2] = 20 nM protein, 3 nM PARPi-FL, 4 h at room temperature, read-out: IC50 FP PARP2

Chain of PARP2 (Q9UGN5 whole entry): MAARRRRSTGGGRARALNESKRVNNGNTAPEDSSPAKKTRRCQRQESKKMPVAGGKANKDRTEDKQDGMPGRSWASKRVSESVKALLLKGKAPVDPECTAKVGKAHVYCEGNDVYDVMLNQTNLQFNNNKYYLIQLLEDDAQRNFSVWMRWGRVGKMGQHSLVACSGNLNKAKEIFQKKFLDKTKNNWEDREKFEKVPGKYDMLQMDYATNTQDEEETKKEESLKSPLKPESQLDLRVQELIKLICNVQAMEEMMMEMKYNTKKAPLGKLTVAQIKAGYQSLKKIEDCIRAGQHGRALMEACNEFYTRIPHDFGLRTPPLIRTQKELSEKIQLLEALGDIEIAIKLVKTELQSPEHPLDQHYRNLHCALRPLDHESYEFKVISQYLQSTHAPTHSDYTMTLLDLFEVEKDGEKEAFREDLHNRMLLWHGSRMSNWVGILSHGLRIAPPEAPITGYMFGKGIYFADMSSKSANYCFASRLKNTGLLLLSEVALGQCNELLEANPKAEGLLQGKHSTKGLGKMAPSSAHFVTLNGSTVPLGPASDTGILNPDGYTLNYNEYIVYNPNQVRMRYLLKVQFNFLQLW
Chain of PARP1 (P09874 whole entry): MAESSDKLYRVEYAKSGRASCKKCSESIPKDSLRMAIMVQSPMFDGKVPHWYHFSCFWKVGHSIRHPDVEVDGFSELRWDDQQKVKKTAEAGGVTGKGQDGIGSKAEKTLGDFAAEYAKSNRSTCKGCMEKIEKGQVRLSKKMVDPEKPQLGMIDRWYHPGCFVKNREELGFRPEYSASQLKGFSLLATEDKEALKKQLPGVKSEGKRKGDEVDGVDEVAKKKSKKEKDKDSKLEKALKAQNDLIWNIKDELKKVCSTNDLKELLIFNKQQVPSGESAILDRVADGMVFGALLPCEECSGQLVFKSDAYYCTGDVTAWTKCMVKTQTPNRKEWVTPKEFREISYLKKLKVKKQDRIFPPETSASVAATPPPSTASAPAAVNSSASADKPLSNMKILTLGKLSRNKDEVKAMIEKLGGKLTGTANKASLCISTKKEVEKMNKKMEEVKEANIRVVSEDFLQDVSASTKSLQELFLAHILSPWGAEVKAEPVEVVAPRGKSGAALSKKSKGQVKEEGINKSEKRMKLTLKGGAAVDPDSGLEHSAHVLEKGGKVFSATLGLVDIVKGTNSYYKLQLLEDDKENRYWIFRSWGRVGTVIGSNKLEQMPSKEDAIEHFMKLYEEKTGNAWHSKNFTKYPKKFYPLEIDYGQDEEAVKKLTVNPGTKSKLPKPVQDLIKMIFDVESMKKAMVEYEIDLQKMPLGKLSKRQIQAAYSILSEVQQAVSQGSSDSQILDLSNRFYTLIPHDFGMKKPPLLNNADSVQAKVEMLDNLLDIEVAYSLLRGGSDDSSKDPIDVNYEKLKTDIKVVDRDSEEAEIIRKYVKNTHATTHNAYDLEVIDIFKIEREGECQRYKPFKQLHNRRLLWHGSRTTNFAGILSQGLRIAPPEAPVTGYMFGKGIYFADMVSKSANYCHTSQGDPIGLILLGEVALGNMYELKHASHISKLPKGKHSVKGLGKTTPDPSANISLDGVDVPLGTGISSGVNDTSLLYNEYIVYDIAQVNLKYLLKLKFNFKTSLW

Structure (SMILES)	EC50 (DLD-1 BRCA2(−/−) cells) [nM]	EC50 [1] [nM]	IC50 (PARP1) [nM]	IC50 (PARP2; [2]) [nM]	IC50 (PARP2) [nM]
CCc1cc2ncc(CN3C[C@H](Oc4ccc(C#N)nc4)[C@H]3C)cc2[nH]c1=O [Example 36]	12	3.7	5	15000	–
Cc1cc2ncc(CN3C[C@H](Oc4ccc(C#N)nc4)[C@H]3C)cc2[nH]c1=O [Example 37]	80	66	4.5	> 100000	–
[2H]C([2H])([2H])NC(=O)c1ccc(O[C@H]2CN(Cc3cnc4cc(CC)c(=O)[nH]c4c3)[C@@H]2C)cn1 [Example 39]	1.3	1.1	4.3	–	5900
[2H]C([2H])([2H])NC(=O)c1ccc(O[C@H]2CN(C([2H])([2H])c3cnc4cc(CC)c(=O)[nH]c4c3)[C@@H]2C)cn1 [Example 45]	1.5	0.87	5	–	6900
CCc1cn2nc(CN3C[C@H](Oc4ccc(C(=O)NC)nc4)[C@H]3C)cc2[nH]c1=O [Example 46]	90	100	9.9	> 100000	–
CCc1cc2ncc(CN3C[C@H](Oc4ccc(C#N)cc4)[C@H]3C)cc2[nH]c1=O [Example 48]	5.7	3.2	6.2	3500	–
CCc1cc2ncc(CN3CC[C@@H](n4ccc5nc(C(=O)NC)ccc54)C3)cc2[nH]c1=O [Example 49]	9.2	9.5	6.3	> 100000	–
CNC(=O)c1ccc(O[C@H]2CN(Cc3cnc4cc(C)c(=O)[nH]c4c3)[C@@H]2C)cn1 [Example 50]	5.3	8.7	11	83000	–
CCc1cc2ncc(CN3C[C@H](Oc4ccc(F)cc4)[C@H]3C)cc2[nH]c1=O [Example 51]	4.4	7.9	4.1	4200	–
CNC(=O)c1ncc(O[C@H]2CN(Cc3cnc4cc(C)c(=O)[nH]c4c3)[C@@H]2C)cc1F [Example 52]	12	9.8	6.3	76000	–
CCNC(=O)c1ccc(OC2CN(Cc3cnc4cc(CC)c(=O)[nH]c4c3)C2)cn1 [Example 58]	3.3	1.7	6	8300	–
Cc1cc2ncc(CN3C[C@H](Oc4ccc(F)nc4)[C@H]3C)cc2[nH]c1=O [Example 62]	86	140	18	52000	–
CCc1cc2ncc(CN3C[C@H](Oc4ccc(C(=O)NC)cc4)[C@H]3C)cc2[nH]c1=O [Example 64]	96	43	> 100	2600	–
O=C(NC1CC1)c1ccc(OC2CN(Cc3cnc4cc(C5CC5)c(=O)[nH]c4c3)C2)cn1 [Example 73]	4.8	2.1	3.6	1700	–
Cc1cc2ncc(CN3C[C@H](Oc4ccc(C(=O)NC5(C)CC5)nc4)[C@H]3C)cc2[nH]c1=O [Example 74]	3.9	2.6	8.9	25000	–

More lines, in order of falling EC50 (DLD-1 BRCA2(−/−) cells), values ahead:

EC50 (DLD-1 BRCA2(−/−) cells) [nM]	EC50 [1] [nM]	IC50 (PARP1) [nM]	IC50 (PARP2; [2]) [nM]	Structure (SMILES)	IC50 (PARP2) [nM]
180	130	5.5	32000	CCc1cc2ncc(CN3CC(n4ccc5nc(C(=O)NC)ccc54)C3)cc2[nH]c1=O [Example 40]	–
150	84	13	12000	CCc1cc2ncc(CN3C[C@H](Oc4ccc(C#N)cn4)[C@H]3C)cc2[nH]c1=O [Example 34]	–
100	100	5.8	88000	Cc1cc2ncc(CN3C[C@H](Oc4ccc(C#N)cc4)[C@H]3C)cc2[nH]c1=O [Example 47]	–
45	12	6.2	76000	CCNC(=O)c1ccc(OC2CN(Cc3cnc4cc(C)c(=O)[nH]c4c3)C2)cn1 [Example 56]	–
12	6.8	9.4	47000	Cc1cc2ncc(CN3CC(Oc4ccc(C(=O)NC5CC5)nc4)C3)cc2[nH]c1=O [Example 57]	–
9.9	32	3.6	> 100000	CNC(=O)c1ccc(O[C@@H]2CCN(Cc3cnc4c(c3)[nH]c(=O)c3ccoc34)C2)cn1 [Example 35]	–
9.8	4.7	5.5	> 100000	CCc1nc2cc(F)c(CN3C[C@H](Oc4ccc(C(=O)NC)nc4)[C@H]3C)cc2[nH]c1=O [Example 59]	–
4.8	3.6	6.6	9600	CCc1cc2ncc(CN3C[C@H](n4ccc5nc(C(=O)NC)ccc54)[C@H]3C)cc2[nH]c1=O [Example 63, 1-[(2R,3S)-1-[(7-ethyl-6-oxo-5H-1,5-naphthyridin-3-yl)methyl]-2-methylazetidin-3-yl]-N-methylpyrrolo[3,2-b]pyridine-5-carboxamide]	–
3.5	1.3	6.7	11000	CCc1cc2ncc(CN3C[C@H](Oc4ccc(C(=O)NC5COC5)nc4)[C@H]3C)cc2[nH]c1=O [Example 44, 5-(((2R,3S)-1-((7-ethyl-6-oxo-5,6-dihydro-1,5-naphthyridin-3-yl)methyl)-2-methylazetidin-3-yl)oxy)-N-(oxetan-3-yl)picolinamide]	–
3.2	3	7.6	8300	CNC(=O)c1ccc(O[C@H]2CN(Cc3cnc4cc(C5CC5)c(=O)[nH]c4c3)[C@@H]2C)cn1 [Example 41]	–
2.9	2.3	6.1	10000	CCc1cc2ncc(CN3C[C@H](Oc4cnc(C(=O)NC)c(F)c4)[C@H]3C)cc2[nH]c1=O [Example 38]	–
2.2	1.3	8	61000	Cc1cc2ncc(CN3C[C@H](Oc4ccc(C(=O)NC5CC5)nc4)[C@H]3C)cc2[nH]c1=O [Example 53]	–
2.1	1.1	5.8	6300	C[C@@H]1[C@@H](Oc2ccc(C(=O)NC3CC3)nc2)CN1Cc1cnc2cc(C3CC3)c(=O)[nH]c2c1 [Example 42]	–
2.1	1	3.3	6400	CCc1cc2ncc(CN3C[C@H](Oc4cnc(C(=O)NC5CC5)c(F)c4)[C@H]3C)cc2[nH]c1=O [Example 66, N-cyclopropyl-5-{[(2R,3S)-1-[(7-ethyl-6-oxo-5H-1,5-naphthyridin-3-yl)methyl]-2-methylazetidin-3-yl]oxy}-3-fluoropyridine-2-carboxamide]	–
1.3	1.1	4.1	2400	CNC(=O)c1ccc(O[C@H]2CN(Cc3cnc4cc(C(F)F)c(=O)[nH]c4c3)[C@@H]2C)cn1 [Example 70]	–
1.1	0.46	6.6	2900	CCc1cc2ncc(CN3C[C@H](Oc4ccc(C(=O)NC5CC5)nc4)[C@H]3C)cc2[nH]c1=O [Example 43, N-cyclopropyl-5-{[(2R,3S)-1-[(7-ethyl-6-oxo-5H-1,5-naphthyridin-3-yl)methyl]-2-methylazetidin-3-yl]oxy}pyridine-2-carboxamide]	–
